In one experiment the target is P70S6K (T412E mutant) (Homo sapiens (Human), UniProt P23443, T412E). The experiment is described as follows: P70S6K enzyme assay. The format is biochemical. As to conditions: read-out: IC50 p70S6K. An outline of the steps: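 Read-out is the substrate/phosphopeptide ratio from mobility-shift electrophoresis on a LabChip 3000.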
The next experiment has as its target His-AKT (Full Length) (Homo sapiens (Human), UniProt P31749). The experiment is described as follows: AKT enzyme assay. The format is biochemical. As to conditions: read-out: IC50 AKT.

Structures are written as SMILES. pIC50: −log10 of the molar value.

Sequence of His-AKT (Full Length) (P31749 whole entry): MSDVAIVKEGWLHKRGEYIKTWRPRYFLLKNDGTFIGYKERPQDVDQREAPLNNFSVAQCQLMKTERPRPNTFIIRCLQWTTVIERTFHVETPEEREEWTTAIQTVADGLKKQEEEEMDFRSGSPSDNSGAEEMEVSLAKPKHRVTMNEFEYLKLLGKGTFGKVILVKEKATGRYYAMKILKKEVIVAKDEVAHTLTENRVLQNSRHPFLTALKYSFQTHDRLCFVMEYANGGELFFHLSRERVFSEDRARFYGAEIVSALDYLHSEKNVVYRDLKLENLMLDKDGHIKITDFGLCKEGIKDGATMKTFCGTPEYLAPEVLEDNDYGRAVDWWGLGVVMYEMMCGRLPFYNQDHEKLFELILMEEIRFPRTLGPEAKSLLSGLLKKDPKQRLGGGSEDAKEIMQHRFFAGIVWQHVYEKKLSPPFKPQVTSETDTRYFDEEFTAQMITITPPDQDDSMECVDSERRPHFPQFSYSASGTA
Sequence of P70S6K (T412E mutant) (P23443 whole entry T412E): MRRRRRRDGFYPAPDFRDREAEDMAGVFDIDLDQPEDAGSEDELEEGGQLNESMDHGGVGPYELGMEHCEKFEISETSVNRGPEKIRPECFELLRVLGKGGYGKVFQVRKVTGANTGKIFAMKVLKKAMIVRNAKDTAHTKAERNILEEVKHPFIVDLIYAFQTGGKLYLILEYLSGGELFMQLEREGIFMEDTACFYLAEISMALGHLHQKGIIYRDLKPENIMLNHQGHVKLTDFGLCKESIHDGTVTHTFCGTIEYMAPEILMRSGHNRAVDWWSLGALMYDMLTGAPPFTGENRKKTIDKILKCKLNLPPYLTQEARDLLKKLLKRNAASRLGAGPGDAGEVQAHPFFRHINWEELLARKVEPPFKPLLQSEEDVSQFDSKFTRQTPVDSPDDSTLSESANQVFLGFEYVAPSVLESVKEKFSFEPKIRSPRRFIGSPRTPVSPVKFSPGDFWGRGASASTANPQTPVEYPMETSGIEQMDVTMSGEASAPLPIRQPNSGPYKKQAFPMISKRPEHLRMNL

Regarding `N#Cc1c(N)ncnc1N1CCC(c2nc(-c3ccc(F)c(C(F)(F)F)c3)cn2CC2CCCN2)CC1` (stereo not drawn) [Compound 147, 4-amino-6-(4-(4-(4-fluoro-3-(trifluoromethyl)phenyl)-1-(pyrrolidin-2-ylmethyl)-1H-imidazol-2-yl)piperidin-1-yl)pyrimidine-5-carbonitrile], the values for the pIC50 at P70S6K (T412E mutant) and at His-AKT (Full Length) were 8.74 and 8.54, respectively.
The corresponding values for `Nc1cc(N2CCC(c3nc(-c4ccc(F)c(C(F)(F)F)c4)cn3CCN3CCC3)CC2)ncn1` [Compound 221] are 7.68 and 7.15.
The corresponding values for `Cc1cc(-c2cn(CCNC3CCCC3)c(C3CCN(c4ncnc(N)c4C#N)CC3)n2)ccc1F` [Compound 389, 4-Amino-6-{4-[1-(2-cyclopentylamino-ethyl)-4-(4-fluoro-3-methyl-phenyl)-1H-imidazol-2-yl]-piperidin-1-yl}-pyrimidine-5-carbonitrile] are 9.05 and 9.15.
The corresponding values for `COc1c(N)ncnc1N1CCC(c2nc(-c3ccc(F)c(C(F)(F)F)c3)cn2CCN2CCC2)CC1` [Compound 97, 6-(4-(1-(2-(azetidin-1-yl)ethyl)-4-(4-fluoro-3-(trifluoromethyl)phenyl)-1H-imidazol-2-yl)piperidin-1-yl)-5-methoxypyrimidin-4-amine] are 8.66 and 8.21.
For the compound `COc1cc(-c2cn(CCN3CCC3)c(C3CCN(c4ncnc(N)c4C(N)=O)CC3)n2)ccc1F` [Compound 121, 4-amino-6-(4-(1-(2-(azetidin-1-yl)ethyl)-4-(4-fluoro-3-methoxyphenyl)-1H-imidazol-2-yl)piperidin-1-yl)pyrimidine-5-carboxamide], the pIC50 on P70S6K (T412E mutant) is 9.00; on His-AKT (Full Length), 8.62.
On the same counts, the results for `N#Cc1c(N)ncnc1N1CCC(c2nc(-c3cnoc3)cn2CCN2CCC2)CC1` [Compound 132, 4-amino-6-(4-(1-(2-(azetidin-1-yl)ethyl)-4-(isoxazol-4-yl)-1H-imidazol-2-yl)piperidin-1-yl)pyrimidine-5-carbonitrile] are 7.64 and 6.66.
The corresponding values for `CCc1c(N)ncnc1N1CCC(c2nc(-c3ccc(F)c(F)c3)cn2CCN2CCCC2)CC1` [Compound 233] are 8.96 and 8.09.
For `CC(C)N(C)CCn1cc(-c2ccc(F)c(C(F)(F)F)c2)nc1C1CCN(c2ncnc(N)c2C#N)CC1` [Compound 360, 4-Amino-6-(4-{4-(4-fluoro-3-trifluoromethyl-phenyl)-1-[2-(isopropyl-methyl-amino)-ethyl]-1H-imidazol-2-yl}-piperidin-1-yl)-pyrimidine-5-carbonitrile], the results for the pIC50 on P70S6K (T412E mutant) and at His-AKT (Full Length) were 8.66 and 8.57, respectively.
In the case of `N#Cc1c(N)ncnc1N1CCC(c2nc(-c3ccc(F)c(Cl)c3)cn2CCN2CCC2)CC1` [Compound 75, 4-Amino-6-{4-[1-(2-azetidin-1-yl-ethyl)-4-(3-chloro-4-fluoro-phenyl)-1H-imidazol-2-yl]-piperidin-1-yl}-pyrimidine-5-carbonitrile], the negative logarithm of the IC50 (pIC50) was 9.00 on P70S6K (T412E mutant) and 8.72 on His-AKT (Full Length).
The corresponding values for `Cn1cc(-c2ccc(F)c(C(F)(F)F)c2)nc1C1CCN(c2ncnc(N)c2-c2cccnc2)CC1` [Compound 53, 6-{4-[4-(4-Fluoro-3-trifluoromethyl-phenyl)-1-methyl-1H-imidazol-2-yl]-piperidin-1-yl}-5-pyridin-3-yl-pyrimidin-4-ylamine] are 8.64 and 6.06.
The corresponding values for `CCc1c(N)ncnc1N1CCC(c2nc(-c3ccnc(Cl)c3)cn2CCN2CCC2)CC1` [Compound 104, 6-(4-(1-(2-(azetidin-1-yl)ethyl)-4-(2-chloropyridin-4-yl)-1H-imidazol-2-yl)piperidin-1-yl)-5-ethylpyrimidin-4-amine] are 8.51 and 7.78.
Regarding `Nc1ncnc(N2CCC(c3nc(-c4ccc(F)c(C(F)(F)F)c4)cn3CCN3CCCC3)CC2)c1-c1ccccc1F` [Compound 58], the results for the negative-log IC50 (pIC50) at P70S6K (T412E mutant) and on His-AKT (Full Length) were 8.43 and 7.12, respectively.

(Values after patent US9145392B2, “Imidazole amines as modulators of kinase activity” (Merck Patent GmbH, priority 2011, dated 2015).)
